Measurements: publication PMC7281472, “CYC31, A Natural Bromophenol PTP1B Inhibitor, Activates Insulin Signaling and Improves Long Chain-Fatty Acid Oxidation in C2C12 Myotubes” (Marine Drugs, 2020)

Target: T1, protein tyrosine phosphatase 1B (PTP1B) (Homo sapiens, UniProt P18031)
T1 construct: gene PTPN1; PTP1B1-321
T1 sequence (P18031 1-321): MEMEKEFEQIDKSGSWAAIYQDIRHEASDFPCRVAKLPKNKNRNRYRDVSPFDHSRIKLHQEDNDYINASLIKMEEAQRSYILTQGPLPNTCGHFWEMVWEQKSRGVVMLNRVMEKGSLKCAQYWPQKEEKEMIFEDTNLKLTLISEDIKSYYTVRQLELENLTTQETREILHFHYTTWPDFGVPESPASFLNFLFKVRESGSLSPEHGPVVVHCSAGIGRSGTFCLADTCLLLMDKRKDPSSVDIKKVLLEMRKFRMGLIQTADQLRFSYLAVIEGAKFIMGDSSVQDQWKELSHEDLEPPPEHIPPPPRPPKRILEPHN
Assay: pNPP hydrolysis assay with recombinant human PTP1B, absorbance at […] nm
Type: biochemical

Compound: Oc1cc(Cc2cc(O)c(O)c(Br)c2Cc2cc(O)c(O)c(Br)c2Br)c(Br)c(Br)c1O [CYC31, 3-bromo-4,5-Bis(2,3-dibromo-4,5-dihydroxybenzyl)-1,2-benzenediol]
- pNPP hydrolysis assay with recombinant human PTP1B, absorbance at 405 nm: As shown in Figure 1B, PTP1B was significantly inactivated by CYC31 in a concentration-dependent manner.
